Assay results as given in ChEMBL document CHEMBL1157777, “Identification of hits as matrix-2 protein inhibitors through the focused screening of a small primary amine library” (J Med Chem, 2010).
Active and inactive are the calls of the source. The rule behind the calls is not given here.

Experiments:
Influenza A virus = assay: Antiviral activity against Influenza A virus (A/Hong Kong/8/1968([…])) infected in MDCK cells; format: functional, organism-based
[1] = Inhibition of avian influenza virus (H5N1) matrix 2 protein expressed in HEK293 cells by path clamp electrophysiology method; format: cell-based; details: Influenza A virus
[2] = Inhibition of avian influenza virus H5N1 matrix 2 protein expressed in HEK293 cells assessed as cell viability after 24 hrs; format: cell-based; details: Influenza A virus, H5N1, HEK293, 24 h
HEK293 = assay: Inhibition of avian influenza virus (H5N1) matrix 2 protein expressed in HEK293 cells at 50 uM by path clamp electrophysiology method; format: cell-based; details: Influenza A virus

SMILES | IC50 (Influenza A virus) [µM] | IC50 [1] [µM] | IC50 [2] [µM] | inhibition (HEK293)
C[C@@H]1[C@@H](N)C[C@H]2C[C@@H]1C2(C)C | 6.02 | 6.8 | 23 | 
NC12CC3CC(CC(C3)C1)C2 [AMANTADINE] | 5.96 | 8.8 | 3.52 | inactive
NC12CC3CC(CC1C3)C2 | 38.2 | 13.5 | 19 | 
C[C@H]1[C@H](N)C[C@@H]2C[C@H]1C2(C)C | 1.36 | 4.3 | 5.96 | 
CC1(C)[C@@H]2CC[C@H](CN)[C@H]1C2 | 2.3 | 4.4 | 25.5 | 
CC(C)(C)C1CCC(N)CC1 (centres undefined) | 33.5 | 4.8 | 3.37 | 
